Like-named read-outs stand apart in the source and are kept apart here.
Key:
[1] = Caco-2 homogenate S9 stability; format: in vitro ADME; conditions: incubation with Caco-2 homogenate for 1 hour, 5 μM, 37° C.
Experimental: Tissue homogenates and plasma samples were obtained from commercial sources (Pel-Freez Biologicals, Rogers, Ark., and GenTest Corporation, Woburn, Mass.). Stability of prodrugs toward the specific enzyme aminopeptidase was also evaluated by incubation with the purified enzyme. Experimental conditions used for the in vitro studies were as follows. Each preparation was incubated with test compound at 37° C. for one hour. Aliquots (50 μL) were removed at 0, 30, and 60 min and quenched with 0.1% trifluoroacetic acid in acetonitrile. Samples were then centrifuged and analyzed for the presence of prodrug and released gabapentin by LC/MS/MS as described below.
Concentrations of prodrug or gabapentin in tissue extracts were determined by direct injection onto an API 2000 LC/MS/MS equipped with an Agilent 1100 binary pump and autosampler. Separation was achieved using a 3.5 μm Zorbax Ellipse XDB-C8 4.4×150 mm column heated to 45° C. during the analysis. The mobile phases were: 0.1% formic acid in water (A) and 0.1% formic acid in acetonitrile (B). The gradient condition was: 2% B for 0.5 min, increasing to 90% B in 2.0 min, maintained for 2.5 min and returning to 2% B for 2 min. A TurboIonSpray source was used on the API 2000. The analysis was performed in the positive ion mode and MRM transitions of 172.0/137.2 were used in the analysis of gabapentin (2). Ten microliters of the sample extracts were injected. Peaks were integrated using Analyst quantitation software. The method was linear for (2) over the concentration range 0.002 to 2.5 μg/mL respectively.
Caco-2 Homogenate S9 Stability: Caco-2 cells were grown for 21 days prior to harvesting. Culture medium was removed and cell monolayers were rinsed and scraped off into ice-cold 10 mM sodium phosphate/0.15 M potassium chloride, pH 7.4. Cells were lysed by sonication at 4° C. using a probe sonicator. Lysed cells were then transferred into 1.5 mL centrifuge vials and centrifuged at 9000 g for 20 min at 4° C. The resulting supernatant (Caco-2 cell homogenate S9 fraction) was aliquoted into 0.5 mL vials and stored at −80° C. until used.
For stability studies, prodrug (5 μM) was incubated in Caco-2 homogenate S9 fraction (0.5 mg protein per mL) for 60 min at 37° C. Concentrations of intact prodrug and released drug were determined at zero time and 60 minutes using LC/MS/MS.

[2] = rat; for Cmax PD (Cmax of prodrug in plasma): oral prodrug 25 mg-equivalents of gabapentin per kg; for Cmax of gabapentin in plasma: single oral dose 25 mg/kg gabapentin or 25 mg-equivalents of gabapentin per kg
Experimental: The pharmacokinetics of the prodrugs prepared in Examples 1 and 3 were examined in rats. […] Animals were fasted overnight prior to dosing and until 4 hours post-dosing. Serial blood samples were obtained over 24 hours following dosing and blood was processed for plasma by centrifugation. Plasma samples were stored at −80° C. until analyzed.
Plasma (50 μL) was precipitated by addition of […] of methanol and supernatant was injected directly onto the LC/MS/MS system. […] Following oral administration of gabapentin prodrugs, concentrations of prodrug and gabapentin in plasma were monitored over 24 hours.

[3] = rat, oral and i.v. dosing of prodrug
[4] = monkey, sodium salt, 10 mg-equivalents of gabapentin per kg
[5] = monkey; for increase in gabapentin exposure (as measured by AUC) on a 7.5-fold increase in dose / AUC G (AUC of gabapentin) / Cmax G (Cmax of gabapentin): oral; for increase in gabapentin exposure (as measured by AUC) on a 7.5-fold increase in dose: 10 to 75 mg-eq/kg
Experimental: The prodrug was administered orally to four adult male monkeys (approximate body weight of 6.5 kg) via an oral nasogastric tubeas solutions in water or PEG 400. The dose was 10 or 75 mg-equivalents of gabapentin per kg body weight. Animals were fasted overnight before the study and for 4 hours post-dosing. Blood samples (1.0 mL) were obtained via femoral or cephalic venipuncture at intervals over 48 hours after oral dosing. Blood was processed immediately for plasma and plasma was frozen at −80° C. until analyzed. […] Oral bioavailability was determined by comparison of area under the gabapentin concentration versus time curve (AUC) following oral administration of prodrug or intravenous administration of an equimolar dose of gabapentin hydrochloride.

[6] = system: PEPT1; conditions: tested at 1 mM on oocytes expressing PEPT1; normalised to 1 mM glycyl-sarcosine
Experimental: (§1) Rat and human PEPT1 and PEPT2 expressing CHO cell lines were prepared as described in PCT Application WO01/20331. Gabapentin-containing dipeptides were evaluated for interaction with the peptide transporters using a radiolabeled substrate uptake assay in a competitive inhibition format, as described in PCT Application WO01/20331. Transport-induced currents were also measured in Xenopus oocytes transfected with rat and human PEPT1 and PEPT2.
(§2) RNA preparation: Rat and human PEPT1 and PEPT2 transporter cDNAs were subdcloned into a modified pGEM plasmid that contains 5′ and 3′ untranslated sequences from the Xenopus β-actin gene. These sequences increase RNA stability and protein expression. Plasmid cDNA was linearized and used as template for in vitro transcription (Epicentre Technologies transcription kit, 4:1 methylated:non-methylated GTP).
(§3) Xenopus oocyte isolation. Xenopus laevis frogs were anesthetized by immersion in Tricaine ([…] in deionized water) for 15 min. […]
(§4) Electrophysiology measurements. Transport currents were measured 2-14 days after injection, using a standard two-electrode electrophysiology set-up (Geneclamp 500 amplifier, Digidata 1320/PCLAMP software and ADInstruments hardware and software were used for signal acquisition).

[7] = system: PEPT2; conditions: tested at 1 mM on oocytes expressing PEPT2; normalised to 1 mM glycyl-sarcosine
Experimental: as §1, §2, §3, §4

N[C@@H](Cc1ccc(C(F)(F)F)cc1)C(=O)NCC1(CC(=O)O)CCCCC1 [1aa, L-4-Trifluoromethylphenylalanine-Gabapentin]
% of prodrug surviving intact [1]: 97%
Cmax PD (Cmax of prodrug in plasma) [2]: 30000 ng/mL

N[C@@H](Cc1ccccc1F)C(=O)NCC1(CC(=O)O)CCCCC1 [1ab, L-2-Fluorophenylalanine-Gabapentin]
fraction absorbed intact following oral administration [3]: about 60%

N[C@@H](Cc1ccc(Br)cc1)C(=O)NCC1(CC(=O)O)CCCCC1 [1ah, L-4-Bromophenylalanine-Gabapentin]
% of prodrug surviving intact [1]: 79%
Cmax PD (Cmax of prodrug in plasma) [2]: 103000 ng/mL
Cmax of gabapentin in plasma [2]: 6100 ng/mL
AUC G (AUC of gabapentin) ([4]; oral): 29100 ± 3500 ng·h/mL
AUC PD (AUC of prodrug) ([4]; oral): 18900 ± 6500 ng·h/mL
Cmax G (Cmax of gabapentin) ([4]; oral): 3800 ± 1100 ng/mL
Cmax PD (Cmax of prodrug) ([4]; oral): 14900 ± 5300 ng/mL
F (oral bioavailability as gabapentin) [4]: 49.1±6.8%

N#Cc1cccc(C[C@H](N)C(=O)NCC2(CC(=O)O)CCCCC2)c1 [1al, L-3-Cyanophenylalanine-Gabapentin]
% of prodrug surviving intact [1]: 46%
Cmax PD (Cmax of prodrug in plasma) [2]: 600 ng/mL

N#Cc1ccc(C[C@H](N)C(=O)NCC2(CC(=O)O)CCCCC2)cc1 [1am, L-4-Cyanophenylalanine-Gabapentin]
% of prodrug surviving intact [1]: 90%
Cmax PD (Cmax of prodrug in plasma) [2]: 22400 ng/mL

N[C@@H](Cc1cc(F)cc(F)c1)C(=O)NCC1(CC(=O)O)CCCCC1 [1ao, L-3,5-Difluorophenylalanine-Gabapentin]
% of prodrug surviving intact [1]: 48%
Cmax PD (Cmax of prodrug in plasma) [2]: 2900 ng/mL

NC(Cc1ccc(F)cc1F)C(=O)NCC1(CC(=O)O)CCCCC1 [1ap, D, L-2,4-Difluorophenylalanine-Gabapentin]
% of prodrug surviving intact [1]: 90%
Cmax PD (Cmax of prodrug in plasma) [2]: 278000 ng/mL

N[C@@H](CO)C(=O)NCC1(CC(=O)O)CCCCC1 [1ax, L-Serine-Gabapentin]
increase in gabapentin exposure (as measured by AUC) on a 7.5-fold increase in dose [5]: 5.1 fold
fraction absorbed intact following oral administration [3]: 15-20%

N[C@@H](Cc1cccc2ccccc12)C(=O)NCC1(CC(=O)O)CCCCC1 [1l, L-1-Naphthylalanine-Gabapentin]
% of prodrug surviving intact [1]: 29%
Cmax PD (Cmax of prodrug in plasma) [2]: 500 ng/mL

NCC1(CC(=O)O)CCCCC1 [compound 2, gabapentin]
Cmax of gabapentin in plasma [2]: 10300 ng/mL
F (oral bioavailability as gabapentin) ([5]; 10 mg-eq/kg): 53.9±17.3%
F (oral bioavailability as gabapentin) ([5]; 75 mg-eq/kg): 22.9±1.1%
AUC G (AUC of gabapentin) ([5]; 10 mg-eq/kg): 32100 ± 10400 ng·h/mL
Cmax G (Cmax of gabapentin) ([5]; 10 mg-eq/kg): 3700 ± 1600 ng/mL
AUC G (AUC of gabapentin) ([5]; 75 mg-eq/kg): 102000 ± 4900 ng·h/mL
Cmax G (Cmax of gabapentin) ([5]; 75 mg-eq/kg): 10800 ± 1300 ng/mL
increase in gabapentin exposure (as measured by AUC) on a 7.5-fold increase in dose [5]: 3.2 fold

CC(C)C[C@H](CNC(=O)[C@@H](N)Cc1ccc(Br)cc1)CC(=O)O [compound 5, L-4-Bromophenylalanine-Pregabalin]
PEPT-specific currents above background [6]: at least 5 % of Imax for Gly-Sar
PEPT-specific currents above background [7]: at least 5 % of Imax for Gly-Sar

L-Tyrosine-(O-2-Bromobenzyloxycarbonyl)-Gabapentin [4d]
% of prodrug surviving intact [1]: 3%

From patent publication US20040254344A1, “Amino acid conjugates providing for sustained systemic concentrations of gaba analogues” (priority 2001, published 2004)
